Data published in PubChem BioAssay AID179 (DTP/NCI, 2004).
Values joined by “and” are separate entries in the source; they are usually repeats but may differ in a detail not shown here. Equal values may be shown once. Active and inactive are the calls of the source.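 Rule for the calls: active = compounds giving half or more protection of infected cells from virus-caused growth loss, again on retest; inactive = the rest.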 Where a SMILES comes first, the peptide text is derived from it.

Test system: CEM cells HIV-1 protection, formazan growth assay
Assay: NCI AIDS Antiviral Assay
Conditions: for IC50: measured here: growth of uninfected CEM cells
Method in brief: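 Human CEM cells, uninfected and HIV-1-infected, received five drug concentrations, and growth was read by soluble formazan assay. Compounds giving at least 50% protection were retested; reproducible 100% protection defined confirmed active.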

SMILES | EC50 | IC50 | outcome
CC1(C)CC(=O)c2c(nc3ccc4ccccc4c3c2-c2ccc(NC(=O)CCCCCCCCC(=O)Nc3ccc(-c4c5c(nc6ccc7ccccc7c46)CC(C)(C)CC5=O)cc3)cc2)C1 | > 100 µM | > 100 µM | –
Cc1cccc(N=Nc2c(C)nn(C(=O)c3ccccc3Cl)c2C)c1 | – | – | inactive
N#Cc1nc(COCCOCc2ccccc2)oc1N | > 110 µM | 107 µM | –
Cc1cc(C(O)(c2cc(C)c(O)c(C(=O)O)c2)c2cc(C)c(O)c(C(=O)O)c2)cc(C(=O)O)c1O | > 3.72 µM | > 3.72 µM | –
CC1(c2ccc3cccc(F)c3c2)OC(=O)c2ccccc21 (configuration not stated) | – | – | inactive
C=C1C(C(=O)O)C1C(=O)O (configuration not stated) | – | – | inactive
COc1ccc(C2CC(=O)c3c(cc(OC)c(O)c3OC)O2)cc1 (configuration not stated) | > 200 µM | 32.4 µM | –
COc1ccc(/C=N/NC(N)=O)cc1 | > 186 µM | > 186 µM | –
NC(=O)C(=O)n1ncc(Cl)c(Cl)c1=O | > 30.9 µM | > 30.9 µM | –
O=C(CSc1nc(-c2ccccc2)c(-c2ccccc2)[nH]1)N/N=C/c1ccc(O)cc1 | > 43.7 µM | 9.77 µM | –
COC(=O)c1c(-c2ccccc2)sc(-c2cccc3ccccc23)c1C(=O)OC | – | – | inactive
C=CCCC(=O)C(Cc1ccccc1OC)C(=O)OC (configuration not stated) | > 129 µM | > 129 µM | –
COC(C)(C)C1=CCC(C)CC1 (configuration not stated) | > 100 µM | > 100 µM | –
Cn1c(=O)c(C(=O)Nc2nc(C34CC5CC(CC(C5)C3)C4)cs2)c(O)c2ccccc21 | > 100 µM | > 100 µM | –
COc1cc(C)cc2c1C(=O)C(Br)(Br)CC2 | > 2 µM | 0.955 µM | –
C/C(=N\Nc1ccc([N+](=O)[O-])cc1[N+](=O)[O-])c1ccc2ccccc2n1 | 182 µM | > 200 µM | –
S=C(NCCNC(=S)SSC(=S)NNc1ccccc1)SSC(=S)NNc1ccccc1 | > 200 µM | 17.4 µM | –
CCN(C(=O)N[C@H](C(=O)N[C@@H](C)C(=O)OC)C(C)C)c1ccccc1 | > 200 µM | 35.5 µM | –
CC(NNC(=O)c1ccncc1)c1ccc(Cl)cc1Cl (configuration not stated) | > 200 µM | 132 µM | –
CN1N=C(N)c2cn(C3OC(COP(=O)(O)O)C(O)C3O)c3ncnc1c23 (configuration not stated) | > 57.5 µM | 21.4 µM | –
O=[N+]([O-])c1ccccc1P1(=O)OCCO1 | > 200 µM | > 200 µM | –
S=C(Nc1ccc2c3c(cccc13)CC2)Nc1ccc2c3c(cccc13)CC2 | > 200 µM | 42.7 µM | –

SMILES | EC50 | IC50 | outcome
CN1C=Nc2c(ncn2C2CCC(CO)O2)C1O (configuration not stated) | > 200 µM | > 200 µM | –
CCCCOC(=O)C1CC2OC2CC1C(=O)OCCOCCOC(=O)C1CC2OC2CC1C(=O)OCCCC (configuration not stated) | > 200 µM | 51.3 µM | –
O=C1OCCN1c1ccccc1 | > 1100 µM | > 1100 µM | –
O=C1C2c3[nH]c4ccccc4c3[C@@H]3CCCCCCCCCCC3C2C(=O)N1c1ccccc1 (some centres not stated) | – | – | inactive
CN(C)C(=O)ON=C1c2ccccc2-c2ccccc21 | > 200 µM | 28.8 µM | –
O=[N+]([O-])c1ccccc1OS(=O)(=O)c1ccccc1 | – | – | inactive
CCN(CC)CCNC(=O)c1nn(-c2ccc(C)cc2)c2c1N(C)S(=O)(=O)c1ccccc1-2 | > 77.6 µM | 56.2 µM | –
COC(=O)/C(C#N)=C1\NC(=O)CC(c2ccccc2)C1C#N (configuration not stated) | > 200 µM | 57.5 µM | –
O=C1NCCCC12CCCNC2=O | > 20.9 µM | > 20.9 µM | –
Cn1c(=O)oc2cc(C(=S)N3CCC(Cc4ccccc4)CC3)ccc21 | > 200 µM | > 200 µM | –
C#CCN1CCC2=C(C1)c1c(O)cc(C(C)C(C)CCCCC)cc1OC2(C)C (configuration not stated) | > 32.4 µM | 14.8 µM | –
CCCc1cc(=O)oc2c3c(c4c(c12)OC(C)(C)C=C4)O[C@H](C)[C@H](C)[C@@H]3O | > 87.1 µM | 6.46 µM | –
COC(=O)[C@H](C)N1C(=O)N[C@@H](C(C)C)C1=O | 0.617 µM | > 200 µM | –
CC1N=C(c2ccccn2)C(c2ccccn2)=NC1c1ccccc1 (configuration not stated) | > 79.4 µM | > 79.4 µM | –
C1COC2SC3=C(SC(=C4SC5=C(SCCS5)S4)S3)SC2O1 (configuration not stated) | > 100 µM | > 100 µM | –
Cc1cccc(C2NC(=S)N3C(c4cccc(C)c4)NC(=S)N23)c1 (configuration not stated) | – | – | inactive
CNC(=O)c1ccccc1[Se][Se]c1ccccc1C(=O)NC | 3.55 µM | 11 µM | –
CC(C(=O)NCCNC(=O)CCCC(=O)N(C)O)C(=O)NCCNC(=O)CCCC(=O)N(C)O | > 200 µM | > 200 µM | –
COc1cc(OC)cc(-n2c(N)c(C#N)c3ccc([N+](=O)[O-])cc3c2=O)c1 | > 200 µM | > 200 µM | –
CC12CC3C(CC1SCC(=O)O2)C3(C)C (configuration not stated) | > 302 µM | > 302 µM | –
CN(CC(O)C(O)C(O)C(O)CO)CN1C(=O)C(=O)c2ccccc21 (configuration not stated) | > 200 µM | 34.7 µM | –
CCOC(C)=Nc1cc(OC)cc2c1NC(=O)CCS2 | > 200 µM | > 200 µM | –

SMILES | EC50 | IC50 | outcome
CC(CN1NC12CCCC2)N1NC12CCCC2 (configuration not stated) | > 200 µM | > 200 µM | –
CC1(C2(C)OC(=O)c3ccccc32)OC(=O)c2ccccc21 (configuration not stated) | > 200 µM | > 200 µM | –
Cc1nc2cnc(Nc3ccccc3)nc2n(-c2ccccc2)c1=O | > 200 µM | > 200 µM | –
O=c1c2cccnc2ncn1CCN1CCCC1 | – | – | inactive
CC(C)(N=NC(C)(C)C1=NCCN1)C1=NCCN1 | > 200 µM | 105 µM and 83.2 µM | –
C/C=C\CCC1CCCCN(C(=O)OC(C)(C)C)C1OCC (configuration not stated) | > 158 µM | > 158 µM | –
CC(C)(CC(O)C#N)/[N+]([O-])=[N+](\[O-])C(C)(C)CC(O)C#N (configuration not stated) | – | – | inactive
Cc1cc2[n-]c1/C=c1\[n-]/c(c(CCC(=O)O)c1C)=C\c1[n-]c(c(C)c1CCC(=O)O)/C=c1/cc(C)/c([n-]1)=C/2.[Ni] | > 9.12 µM | – | –
CN1CN(C(=O)N2CN(C)C(=O)N(C)C2)CN(C)C1=O | > 158 µM | > 158 µM | –
CCn1cc(/C=C/C(C)c2cn(CC)c(=O)[nH]c2=O)c(=O)[nH]c1=O (configuration not stated) | – | – | inactive
COc1ccc(/C=c2\sc3n(c2=O)CCN=3)cc1 | – | – | inactive
Cc1ccccc1N1CC2CC3C=CC2(C1)O3 (configuration not stated) | > 200 µM | > 200 µM | –
COc1cccc(Nc2nc(NNC(=O)Cc3ccccc3)nc(NNC(=O)c3ccncc3)n2)c1 | > 200 µM | > 200 µM | –
O=c1[nH]c2ccsc2c(=O)n1COCc1ccccc1 | > 200 µM | > 200 µM | –
CN(C)c1ccc(C(c2cc3c(cc2O)OCO3)N2CCOCC2)cc1 (configuration not stated) | > 72.4 µM | 12.9 µM | –
CCC(C)C(NC(=O)C(N)CCC(=O)O)C(=O)NC(CCCCN)C(=O)NCC(=O)NC(C(=O)NC(C(=O)NC(CC(=O)O)C(=O)NC(CC(C)C)C(=O)NCC(=O)NC(CCCCN)C(=O)O)C(C)O)C(C)O (configuration not stated) (H-EIKGTTDLGK-OH; configuration not given here) | – | – | inactive
CO[C@@H]1C2=CC=CC=C[C@H]2n2c(=O)n(C)c(=O)n21 | > 525 µM | 79.4 µM | –
COC1(C)C=NCC(C)(C)NC(=O)C(C)(OC)C=NCC(C)(C)NC1=O (configuration not stated) | > 14.1 µM | > 14.1 µM | –
COC(=O)c1ncn(C)c1O | > 200 µM | > 200 µM | –
COc1ccc(/C=C(\C)C=O)cc1 | > 204 µM | > 204 µM | –
Cc1ccc(S(=O)(=O)N/N=C2/CC[C@H](C(C)(C)C)C[C@@H]2C)cc1 | > 200 µM | 21.9 µM | –
